Assay results: ChEMBL document CHEMBL5154760, “Metabolism guided optimization of peptidomimetics as non-covalent proteasome inhibitors for cancer treatment” (Eur J Med Chem, 2022)
pIC50: −log10 of the molar value. The source made the active and inactive calls. The calls are words filed in the database; no cut-off is given here.

Target: 20S proteasome
Test: Inhibition of chymotrypsin-like activity of human 20S proteasome using Suc-Leu Leu-Val-Tyr-AMC as substrate preincubated for 15 mins followed by substrate addition measured by fluorescence assay
Format: protein-complex assay
Conditions: not given

Compound | pIC50
CC(C)(C)CNC(=O)C[C@H](NC(=O)N1CCC(C(=O)Nc2cccnc2)CC1)C(=O)N[C@@H](CCc1ccccc1)C(=O)N[C@H]1CCCc2ccccc21 | 5.35
C[C@H](NC(=O)[C@H](CCc1ccccc1)NC(=O)[C@H](CC(=O)NCC(C)(C)C)NC(=O)N1CCC(C(=O)N(C)c2cccnc2)CC1)c1ccccc1 | < 5.00
CC(C)(C)CNC(=O)C[C@H](NC(=O)N1CCC(C(=O)N2CCc3ccccc32)CC1)C(=O)N[C@@H](CCc1ccccc1)C(=O)N[C@@H]1CCCc2ccccc21 | 8.14
CC(C)(C)CNC(=O)C[C@H](NC(=O)N1CCN(C(=O)c2cccnc2)CC1)C(=O)N[C@@H](CCc1ccccc1)C(=O)N[C@@H]1CCCc2ccccc21 | 7.60
CN(C(=O)C1CCN(C(=O)N[C@@H](CC(=O)NCC(C)(C)C)C(=O)N[C@@H](CCc2ccccc2)C(=O)N[C@@H]2CCCc3ccccc32)CC1)c1ccccn1 | 8.05
CC(C)(C)CNC(=O)C[C@H](NC(=O)N1CCC(C(=O)Nc2nccs2)CC1)C(=O)N[C@@H](CCc1ccccc1)C(=O)NCc1ccccc1Cl | 9.04
CN(C(=O)C1CCN(C(=O)N[C@@H](CC(=O)NCC(C)(C)C)C(=O)N[C@@H](CCc2ccccc2)C(=O)N2CCc3ccccc3C2)CC1)c1cccnc1 | < 5.00
CC(C)(C)CNC(=O)C[C@H](NC(=O)N1CCC(C(=O)N2CCCc3ccccc32)CC1)C(=O)N[C@@H](CCc1ccccc1)C(=O)N[C@@H]1CCCc2ccccc21 | 8.09
C[C@@H](c1ccccc1)N(C)C(=O)[C@H](CCc1ccccc1)NC(=O)[C@H](CC(=O)NCC(C)(C)C)NC(=O)N1CCC(C(=O)Nc2cccnc2)CC1 | < 5.00
CN(C(=O)C1CCN(C(=O)N[C@@H](CC(=O)NCC(C)(C)C)C(=O)N[C@@H](CCc2ccccc2)C(=O)N[C@@H]2CCCc3ccccc32)CC1)c1ccccc1 | 8.03
CN(C(=O)C1CCN(C(=O)N[C@@H](CC(=O)NCC(C)(C)C)C(=O)N[C@@H](CCc2ccccc2)C(=O)N[C@H]2CCCc3ccccc32)CC1)c1cccnc1 | < 5.00
CN(C(=O)C1CCN(C(=O)N[C@@H](CC(=O)NCC(C)(C)C)C(=O)N[C@@H](CCc2ccccc2)C(=O)N[C@@H]2CCCc3ccccc32)CC1)c1ccc(F)cc1 | 8.03
CN(Cc1ccccc1Cl)C(=O)[C@H](CCc1ccccc1)NC(=O)[C@H](CC(=O)NCC(C)(C)C)NC(=O)N1CCC(C(=O)N(C)c2cccnc2)CC1 | < 5.00
CN(C(=O)C1CCN(C(=O)N[C@@H](CC(=O)NCC(C)(C)C)C(=O)N[C@@H](CCc2ccccc2)C(=O)N[C@@H]2CCCc3ccccc32)CC1)c1cccnc1 | 8.07
CN(C(=O)C1CCN(C(=O)N[C@@H](CC(=O)NCC(C)(C)C)C(=O)N[C@@H](CCc2ccccc2)C(=O)N[C@@H]2CCCc3ccccc32)CC1)c1ccncc1 | 8.03
CN(C(=O)C1CCN(C(=O)N[C@@H](CC(=O)NCC(C)(C)C)C(=O)N[C@@H](CCc2ccccc2)C(=O)N[C@@H]2CCCc3ccccc32)CC1)c1cccc(Cl)c1 | 7.65
COc1ccc(N(C)C(=O)C2CCN(C(=O)N[C@@H](CC(=O)NCC(C)(C)C)C(=O)N[C@@H](CCc3ccccc3)C(=O)N[C@@H]3CCCc4ccccc43)CC2)cc1 | 7.60

Target: 20S proteasome (Homo sapiens) (UniProt P49721+P20618+P28074+P28062+P28065+P28072+P25786+P25787+P25788+P25789+P28066+P60900+O14818+Q8TAA3+P40306+A5LHX3+P49720+P28070+Q99436)
Test: Inhibition of chymotrypsin-like activity of 20S proteasome in human MM1.S cells assessed as accumulation of polyubiquitinated proteins at 10 to 1000 nM and measured by Western blot analysis
Format: cell-based
Conditions: dose 10-1000 nM

Compound | inhibition
CN(C(=O)C1CCN(C(=O)N[C@@H](CC(=O)NCC(C)(C)C)C(=O)N[C@@H](CCc2ccccc2)C(=O)N[C@@H]2CCCc3ccccc32)CC1)c1ccccc1 | Active

Test system: MM1.S
Test: Antiproliferative activity against human MM1.S cells after 72 hrs by MTS assay
Format: functional, cell-based
Conditions: not given

Compound | pIC50
CC(C)(C)CNC(=O)C[C@H](NC(=O)N1CCC(C(=O)N2CCc3ccccc32)CC1)C(=O)N[C@@H](CCc1ccccc1)C(=O)N[C@@H]1CCCc2ccccc21 | 7.77
CN(C(=O)C1CCN(C(=O)N[C@@H](CC(=O)NCC(C)(C)C)C(=O)N[C@@H](CCc2ccccc2)C(=O)N[C@@H]2CCCc3ccccc32)CC1)c1ccccn1 | 7.69
CC(C)(C)CNC(=O)C[C@H](NC(=O)N1CCC(C(=O)N2CCCc3ccccc32)CC1)C(=O)N[C@@H](CCc1ccccc1)C(=O)N[C@@H]1CCCc2ccccc21 | 7.91
CN(C(=O)C1CCN(C(=O)N[C@@H](CC(=O)NCC(C)(C)C)C(=O)N[C@@H](CCc2ccccc2)C(=O)N[C@@H]2CCCc3ccccc32)CC1)c1ccccc1 | 8.05
CN(C(=O)C1CCN(C(=O)N[C@@H](CC(=O)NCC(C)(C)C)C(=O)N[C@@H](CCc2ccccc2)C(=O)N[C@@H]2CCCc3ccccc32)CC1)c1ccc(F)cc1 | 7.75
CN(C(=O)C1CCN(C(=O)N[C@@H](CC(=O)NCC(C)(C)C)C(=O)N[C@@H](CCc2ccccc2)C(=O)N[C@@H]2CCCc3ccccc32)CC1)c1cccnc1 | 7.27
CN(C(=O)C1CCN(C(=O)N[C@@H](CC(=O)NCC(C)(C)C)C(=O)N[C@@H](CCc2ccccc2)C(=O)N[C@@H]2CCCc3ccccc32)CC1)c1ccncc1 | 7.08

Test system: not listed separately
Test: Stability of the compound in mouse blood assessed as half-life measured by LC-MS/MS analysis
Format: ADME, tissue-based
Conditions: not given

Compound | half-life [h]
CC(C)(C)CNC(=O)C[C@H](NC(=O)N1CCC(C(=O)Nc2nccs2)CC1)C(=O)N[C@@H](CCc1ccccc1)C(=O)NCc1ccccc1Cl | 0.613
CN(C(=O)C1CCN(C(=O)N[C@@H](CC(=O)NCC(C)(C)C)C(=O)N[C@@H](CCc2ccccc2)C(=O)N[C@@H]2CCCc3ccccc32)CC1)c1ccccc1 | 2.46

Test system: RPMI-8226
Test: Antiproliferative activity against human RPMI-8226 cells after 72 hrs by MTS assay
Format: functional, cell-based
Conditions: RPMI-8226, 72 h

Compound | pIC50
CC(C)(C)CNC(=O)C[C@H](NC(=O)N1CCC(C(=O)N2CCc3ccccc32)CC1)C(=O)N[C@@H](CCc1ccccc1)C(=O)N[C@@H]1CCCc2ccccc21 | 7.70
CN(C(=O)C1CCN(C(=O)N[C@@H](CC(=O)NCC(C)(C)C)C(=O)N[C@@H](CCc2ccccc2)C(=O)N[C@@H]2CCCc3ccccc32)CC1)c1ccccn1 | 7.47
CC(C)(C)CNC(=O)C[C@H](NC(=O)N1CCC(C(=O)N2CCCc3ccccc32)CC1)C(=O)N[C@@H](CCc1ccccc1)C(=O)N[C@@H]1CCCc2ccccc21 | 7.62
CN(C(=O)C1CCN(C(=O)N[C@@H](CC(=O)NCC(C)(C)C)C(=O)N[C@@H](CCc2ccccc2)C(=O)N[C@@H]2CCCc3ccccc32)CC1)c1ccccc1 | 7.68
CN(C(=O)C1CCN(C(=O)N[C@@H](CC(=O)NCC(C)(C)C)C(=O)N[C@@H](CCc2ccccc2)C(=O)N[C@@H]2CCCc3ccccc32)CC1)c1ccc(F)cc1 | 7.58
CN(C(=O)C1CCN(C(=O)N[C@@H](CC(=O)NCC(C)(C)C)C(=O)N[C@@H](CCc2ccccc2)C(=O)N[C@@H]2CCCc3ccccc32)CC1)c1cccnc1 | 7.09
CN(C(=O)C1CCN(C(=O)N[C@@H](CC(=O)NCC(C)(C)C)C(=O)N[C@@H](CCc2ccccc2)C(=O)N[C@@H]2CCCc3ccccc32)CC1)c1ccncc1 | < 7.00

Test system: MV4-11
Test: Antiproliferative activity against human MV4-11 cells after 72 hrs by MTS assay
Format: functional, cell-based
Conditions: MV4-11, 72 h

Compound | pIC50
CC(C)(C)CNC(=O)C[C@H](NC(=O)N1CCC(C(=O)N2CCc3ccccc32)CC1)C(=O)N[C@@H](CCc1ccccc1)C(=O)N[C@@H]1CCCc2ccccc21 | 8.34
CN(C(=O)C1CCN(C(=O)N[C@@H](CC(=O)NCC(C)(C)C)C(=O)N[C@@H](CCc2ccccc2)C(=O)N[C@@H]2CCCc3ccccc32)CC1)c1ccccn1 | 8.31
CC(C)(C)CNC(=O)C[C@H](NC(=O)N1CCC(C(=O)N2CCCc3ccccc32)CC1)C(=O)N[C@@H](CCc1ccccc1)C(=O)N[C@@H]1CCCc2ccccc21 | 8.31
CN(C(=O)C1CCN(C(=O)N[C@@H](CC(=O)NCC(C)(C)C)C(=O)N[C@@H](CCc2ccccc2)C(=O)N[C@@H]2CCCc3ccccc32)CC1)c1ccccc1 | 8.56
CN(C(=O)C1CCN(C(=O)N[C@@H](CC(=O)NCC(C)(C)C)C(=O)N[C@@H](CCc2ccccc2)C(=O)N[C@@H]2CCCc3ccccc32)CC1)c1ccc(F)cc1 | 8.31
CN(C(=O)C1CCN(C(=O)N[C@@H](CC(=O)NCC(C)(C)C)C(=O)N[C@@H](CCc2ccccc2)C(=O)N[C@@H]2CCCc3ccccc32)CC1)c1cccnc1 | 7.92
CN(C(=O)C1CCN(C(=O)N[C@@H](CC(=O)NCC(C)(C)C)C(=O)N[C@@H](CCc2ccccc2)C(=O)N[C@@H]2CCCc3ccccc32)CC1)c1ccncc1 | 7.29
